According to US20240425479A1, “HALO-SUBSTITUTED AMINO AZA-HETEROARYL COMPOUNDS AS INHIBITORS OF THE HAEMATOPOIETIC PROGENITOR KINASE 1 (HPK1)” (priority 2021, published 2024):

Molecular target: T1, Recombinant (1-346) HPK1 (h) (Homo sapiens, UniProt Q92918)
T1 construct: Recombinant (1-346) HPK1 (h) is incubated with 8 mM MOPS pH 7.0
T1 sequence (Q92918 1-346): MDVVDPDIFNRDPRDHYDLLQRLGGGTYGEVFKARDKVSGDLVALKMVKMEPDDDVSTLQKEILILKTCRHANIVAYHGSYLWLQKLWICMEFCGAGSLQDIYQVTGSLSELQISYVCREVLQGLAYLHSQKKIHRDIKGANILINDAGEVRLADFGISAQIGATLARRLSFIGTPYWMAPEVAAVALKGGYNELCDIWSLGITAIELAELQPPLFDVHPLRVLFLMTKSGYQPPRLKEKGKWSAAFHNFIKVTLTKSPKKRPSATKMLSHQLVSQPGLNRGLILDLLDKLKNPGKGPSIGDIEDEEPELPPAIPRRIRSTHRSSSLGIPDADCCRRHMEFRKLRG
Test: HPK1 human STE kinase enzymatic radiometric assay
Format: biochemical
Conditions: read-out: HPK1 IC50 nM Range
Outline: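 Recombinant HPK1 (1-346) incubated 40 min at RT with 0.33 mg/mL myelin basic protein and [gamma-33P]-ATP in 8 mM MOPS pH 7.0, 0.2 mM EDTA, 10 mM Mg acetate; reaction started with Mg/ATP. Stopped with 0.5% phosphoric acid, spotted on P30 filtermat, washed, scintillation counted. Compounds tested as 9-point 3-fold dilutions.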

| Compound | IC50 |
| --- | --- |
| CN(C)[C@@H]1COc2ccc(-c3nc(-c4cc5c(cc4F)C(=O)NCC5)c(N)nc3F)cc21 [Example I-255, (S)-6-(3-amino-6-(3-(dimethylamino)-2,3-dihydrobenzofuran-5-yl)-5-fluoropyrazin-2-yl)-7-fluoro-3,4-dihydroisoquinolin-1(2H)-one] | 11 to 100 nM |
| CN(C)[C@@H]1COc2ccc(-c3nc(-c4ccc5c(c4)C(F)(F)CNC5=O)c(N)nc3F)cc21 [Example I-256, (S)-6-(3-amino-6-(3-(dimethylamino)-2,3-dihydrobenzofuran-5-yl)-5-fluoropyrazin-2-yl)-4,4-difluoro-3,4-dihydroisoquinolin-1(2H)-one] | 0.1 to 10 nM |
| CN(C)Cc1cc(-c2nc(-c3ccc4c(c3)CCNC4=O)c(N)nc2F)c(F)cc1N1CCOCC1 [Example I-258, 6-(3-amino-6-(5-((dimethylamino)methyl)-2-fluoro-4-morpholinophenyl)-5-fluoropyrazin-2-yl)-3,4-dihydroisoquinolin-1(2H)-one] | 101 to 1000 nM |
| CN(C)Cc1cc(-c2nc(-c3ccc4c(=O)[nH]cc(F)c4c3)c(N)nc2F)c(F)cc1N1CCOCC1 [Example I-259, 6-(3-amino-6-(5-((dimethylamino)methyl)-2-fluoro-4-morpholinophenyl)-5-fluoropyrazin-2-yl)-4-fluoroisoquinolin-1(2H)-one] | 11 to 100 nM |
| CC(C)N1CCN(c2ccc(-c3nc(-c4ccc5c(c4)C4(CC4)NCC5=O)c(N)nc3F)cc2)CC1 [Example I-260, 7′-(3-amino-5-fluoro-6-(4-(4-isopropylpiperazin-1-yl)phenyl)pyrazin-2-yl)-2′,3′-dihydro-4′H-spiro[cyclopropane-1,1′-isoquinolin]-4′-one] | 101 to 1000 nM |
| Cc1c[nH]c(=O)c2ccc(-c3nc(-c4cc(CN(C)C)c(N5CCOCC5)cc4F)c(F)nc3N)cc12 [Example I-261, 6-(3-amino-6-(5-((dimethylamino)methyl)-2-fluoro-4-morpholinophenyl)-5-fluoropyrazin-2-yl)-4-methylisoquinolin-1(2H)-one] | 101 to 1000 nM |
| CN(C)Cc1cc(-c2nc(-c3ccc4c(c3)CCNC4=O)c(N)nc2F)c(F)c(F)c1N1CCOCC1 [Example I-262, 6-(3-amino-6-(5-((dimethylamino)methyl)-2,3-difluoro-4-morpholinophenyl)-5-fluoropyrazin-2-yl)-3,4-dihydroisoquinolin-1(2H)-one] | 101 to 1000 nM |
| CN(C)Cc1cc(-c2nc(-c3ccc4c(=O)[nH]cc(F)c4c3)c(N)nc2F)c(F)c(F)c1N1CCOCC1 [Example I-263, 6-(3-amino-6-(5-((dimethylamino)methyl)-2,3-difluoro-4-morpholinophenyl)-5-fluoropyrazin-2-yl)-4-fluoroisoquinolin-1(2H)-one] | 11 to 100 nM |
| Cc1c[nH]c(=O)c2ccc(-c3nc(-c4cc(CN(C)C)c(N5CCOCC5)c(F)c4F)c(F)nc3N)cc12 [Example I-264, 6-(3-amino-6-(5-((dimethylamino)methyl)-2,3-difluoro-4-morpholinophenyl)-5-fluoropyrazin-2-yl)-4-methylisoquinolin-1(2H)-one] | 101 to 1000 nM |
| CN(C)Cc1cc(-c2nc(-c3ccc4c(=O)[nH]cc(F)c4c3)c(N)nc2F)cc(F)c1N1CCOCC1 [Example I-265, 6-(3-amino-6-(3-((dimethylamino)methyl)-5-fluoro-4-morpholinophenyl)-5-fluoropyrazin-2-yl)-4-fluoroisoquinolin-1(2H)-one] | 0.1 to 10 nM |
| Cc1c[nH]c(=O)c2ccc(-c3nc(-c4cc(F)c(N5CCOCC5)c(CN(C)C)c4)c(F)nc3N)cc12 [Example I-266, 6-(3-amino-6-(3-((dimethylamino)methyl)-5-fluoro-4-morpholinophenyl)-5-fluoropyrazin-2-yl)-4-methylisoquinolin-1(2H)-one] | 0.1 to 10 nM |
| CN(C)Cc1cc(-c2nc(-c3ccc4c(=O)[nH]cc(F)c4c3)c(N)nc2F)cc2c1OCCC2 [Example I-268, 6-(3-amino-6-(8-((dimethylamino)methyl)chroman-6-yl)-5-fluoropyrazin-2-yl)-4-fluoroisoquinolin-1(2H)-one] | 0.1 to 10 nM |
| CN(C)Cc1cc(-c2nc(-c3ccc4c(=O)[nH]cc(F)c4c3)c(N)nc2F)cc2c1OCCO2 [Example I-269, 6-(3-amino-6-(8-((dimethylamino)methyl)-2,3-dihydrobenzo[b][1,4]dioxin-6-yl)-5-fluoropyrazin-2-yl)-4-fluoroisoquinolin-1(2H)-one] | 0.1 to 10 nM |
| CN(C)Cc1cc(-c2nc(-c3ccc4c(=O)[nH]cc(F)c4c3)c(N)nc2F)ccc1OC(F)F [Example I-270, 6-(3-amino-6-(4-(difluoromethoxy)-3-((dimethylamino)methyl)phenyl)-5-fluoropyrazin-2-yl)-4-fluoroisoquinolin-1(2H)-one] | 0.1 to 10 nM |
| CC(C)(N)c1cc(-c2nc(-c3ccc4c(c3)CCNC4=O)c(N)nc2F)ccc1F [Example I-271, 6-(3-amino-6-(3-(2-aminopropan-2-yl)-4-fluorophenyl)-5-fluoropyrazin-2-yl)-3,4-dihydroisoquinolin-1(2H)-one] | 101 to 1000 nM |
| CN(C)Cc1cc(-c2nc(-c3ccc4c(c3)CCNC4=O)c(N)nc2F)ccc1F [Example I-272, 6-(3-amino-6-(3-((dimethylamino)methyl)-4-fluorophenyl)-5-fluoropyrazin-2-yl)-3,4-dihydroisoquinolin-1(2H)-one] | 11 to 100 nM |
| CN(C)Cc1cc(-c2nc(-c3cc4c(cc3F)C(=O)NCC4)c(N)nc2F)ccc1F [Example I-273, 6-(3-amino-6-(3-((dimethylamino)methyl)-4-fluorophenyl)-5-fluoropyrazin-2-yl)-7-fluoro-3,4-dihydroisoquinolin-1(2H)-one] | 11 to 100 nM |
| CN(C)Cc1cc(-c2nc(-c3cc(F)c4c(c3)CCNC4=O)c(N)nc2F)ccc1F [Example I-274, 6-(3-amino-6-(3-((dimethylamino)methyl)-4-fluorophenyl)-5-fluoropyrazin-2-yl)-8-fluoro-3,4-dihydroisoquinolin-1(2H)-one] | 101 to 1000 nM |
| Cc1c[nH]c(=O)c2ccc(-c3nc(-c4ccc(F)c(CN(C)C)c4)c(F)nc3N)cc12 [Example I-275, 6-(3-amino-6-(3-((dimethylamino)methyl)-4-fluorophenyl)-5-fluoropyrazin-2-yl)-4-methylisoquinolin-1(2H)-one] | 11 to 100 nM |
| CN(C)Cc1cc(-c2nc(-c3ccc4c(=O)[nH]cc(F)c4c3)c(N)nc2F)ccc1F [Example I-276, 6-(3-amino-6-(3-((dimethylamino)methyl)-4-fluorophenyl)-5-fluoropyrazin-2-yl)-4-fluoroisoquinolin-1(2H)-one] | 11 to 100 nM |
| CN(C)Cc1cccc(-c2nc(-c3ccc4c(c3)CCNC4=O)c(N)nc2F)c1 [Example I-277, 6-(3-amino-6-(3-((dimethylamino)methyl)phenyl)-5-fluoropyrazin-2-yl)-3,4-dihydroisoquinolin-1(2H)-one] | 11 to 100 nM |
| CN(C)Cc1cccc(-c2nc(-c3cc4c(cc3F)C(=O)NCC4)c(N)nc2F)c1 [Example I-278, 6-(3-amino-6-(3-((dimethylamino)methyl)phenyl)-5-fluoropyrazin-2-yl)-7-fluoro-3,4-dihydroisoquinolin-1(2H)-one] | 11 to 100 nM |
| CN(C)Cc1cccc(-c2nc(-c3cc(F)c4c(c3)CCNC4=O)c(N)nc2F)c1 [Example I-279, 6-(3-amino-6-(3-((dimethylamino)methyl)phenyl)-5-fluoropyrazin-2-yl)-8-fluoro-3,4-dihydroisoquinolin-1(2H)-one] | 11 to 100 nM |
| Cc1c[nH]c(=O)c2ccc(-c3nc(-c4cccc(CN(C)C)c4)c(F)nc3N)cc12 [Example I-280, 6-(3-amino-6-(3-((dimethylamino)methyl)phenyl)-5-fluoropyrazin-2-yl)-4-methylisoquinolin-1(2H)-one] | 11 to 100 nM |
| CN(C)Cc1cccc(-c2nc(-c3ccc4c(=O)[nH]cc(F)c4c3)c(N)nc2F)c1 [Example I-281, 6-(3-amino-6-(3-((dimethylamino)methyl)phenyl)-5-fluoropyrazin-2-yl)-4-fluoroisoquinolin-1(2H)-one] | 11 to 100 nM |
| CCN(C)Cc1cc(-c2nc(-c3ccc4c(=O)[nH]cc(F)c4c3)c(N)nc2F)ccc1C1=CCOCC1 [Example I-282, 6-(3-amino-6-(4-(3,6-dihydro-2H-pyran-4-yl)-3-((ethyl(methyl)amino)methyl)phenyl)-5-fluoropyrazin-2-yl)-4-fluoroisoquinolin-1(2H)-one] | 11 to 100 nM |
| CN(C)[C@@H]1COc2ccc(-c3nc(-c4ccc5c(=O)[nH]ccc5c4)c(N)nc3F)cc21 [Example I-283, (S)-6-(3-amino-6-(3-(dimethylamino)-2,3-dihydrobenzofuran-5-yl)-5-fluoropyrazin-2-yl)isoquinolin-1(2H)-one] | 11 to 100 nM |
| Cc1c[nH]c(=O)c2ccc(-c3nc(-c4ccc5c(c4)[C@H](N(C)C)CO5)c(F)nc3N)cc12 [Example I-284, (S)-6-(3-amino-6-(3-(dimethylamino)-2,3-dihydrobenzofuran-5-yl)-5-fluoropyrazin-2-yl)-4-methylisoquinolin-1(2H)-one] | 11 to 100 nM |
| Cc1c[nH]c(=O)c2ccc(-c3nc(-c4ccc5c(c4)[C@H](N(C)C)CCO5)c(F)nc3N)cc12 [Example I-285, (R)-6-(3-amino-6-(4-(dimethylamino)chroman-6-yl)-5-fluoropyrazin-2-yl)-4-methylisoquinolin-1(2H)-one] | 0.1 to 10 nM |
